Test system: Δ 4,5 glycuronidase
Assay: Δ 4,5 glycuronidase activity (loss of UV absorption at 232 nm)
Type: biochemical, F. heparinum
Details: 2 mM substrate, 250 nM Δ 4,5 enzyme alone, 30° C.
Procedure: The substrate-product relationship between the two enzymes was examined by directly measuring Δ 4,5 glycuronidase activity either before or following the addition of recombinant 2-O sulfatase. Reactions were carried out at 30° C. and included 50 mM MES, pH 6.5, 100 mM NaCl, and 2 mM ΔU2SHNS in a 100 μL reaction volume. In these experiments, 250 nM Δ 4,5 glycuronidase and 25 nM 2-O ΔN^1-24 were sequentially added as follows: Δ 4,5 alone, Δ 4,5 followed by 2-O sulfatase, or 2-O sulfatase followed by Δ 4,5.
We hypothesized that, an obligatory substrate-product relationship between the 2-O sulfatase and the Δ 4,5 glycuronidase may exist. We examined a possible kinetic relationship between these two enzymes by looking at their sequential action (FIG. 7). In this experiment, Δ 4,5 glycuronidase activity was measured directly either […] or following the addition of the recombinant 2-O sulfatase using the disaccharide substrate ΔU2SHNS. […] In the reciprocal experiment (i.e., whereby the 2-O sulfatase was added second), we observed an initial lag in Δ 4,5 activity. This lag was followed by a linear Δ 4,5 activity, albeit at a slower rate than in the case where the 2-O sulfatase was added first. The observed delay in activity was presumably due to the prerequisite 2-O desulfation of the substrate which must occur prior to being acted on by the glycuronidase.

O=C(O)C1=C[C@H](O)[C@@H](OS(=O)(=O)O)[C@H](O[C@H]2[C@H](O)[C@@H](NS(=O)(=O)O)C(O)O[C@@H]2CO)O1 (stereo partly shown) [ΔU2SHNS]
glycuronidase-mediated hydrolysis: completely refractory

Source: US7429474B2, “2-O sulfatase compositions and methods of analyzing therewith” (Massachusetts Institute of Technology, priority 2003, dated 2008)
